In data set [1] the target is Calcium-dependent protein kinase 1 (Plasmodium falciparum) (UniProt P62344). Kind of data set: Inhibition of wild type full length Plasmodium falciparum PFCDPK1 (1 to 524 residues) expressed in mammalian expression system at 1 uM by KINOMEscan analysis.
Data set [2] is described as follows: Metabolic stability of the compound in mouse liver microsomes at 10 uM measured for 60 mins in presence of NADPH by LC-MS/MS analysis. The format is ADME, Microsome. Conditions: 1 h.
Data set [3] deals with Cyclin-dependent kinase 9 (Homo sapiens) (UniProt P50750). Kind of data set: Inhibition of CDK9 in human MV4-11 cells assessed as reduction in RNA polymerase 2 phosphorylation at Ser2 residue incubated for 12 hrs by western blot analysis. The format is cell-based. Conditions: dose 0.1-4 µM.
Chain of Cyclin-dependent kinase 9 (Homo sapiens) (P50750 whole entry): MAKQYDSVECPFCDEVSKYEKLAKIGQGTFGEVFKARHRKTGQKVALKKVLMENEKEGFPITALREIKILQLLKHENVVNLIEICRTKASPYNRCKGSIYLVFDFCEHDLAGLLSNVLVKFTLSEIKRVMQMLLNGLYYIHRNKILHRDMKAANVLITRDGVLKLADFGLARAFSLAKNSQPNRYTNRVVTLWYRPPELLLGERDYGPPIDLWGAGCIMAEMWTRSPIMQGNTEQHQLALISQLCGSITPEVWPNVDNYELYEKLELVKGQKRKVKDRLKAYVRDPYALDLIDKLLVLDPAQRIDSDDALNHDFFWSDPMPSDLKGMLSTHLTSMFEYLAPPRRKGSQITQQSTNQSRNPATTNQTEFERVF
Data set [4] shares this target. The experiment in a line: Inhibition of CDK9 in human MV4-11 cells assessed as reduction in c-Myc protein expression incubated for 12 hrs by western blot analysis. The format is cell-based. Conditions: dose 0.1-4 µM. (A western blot detects proteins with antibodies after separation by electrophoresis.)
In data set [5] the test system is MV4-11. The experiment in a line: Induction of apoptosis in human MV4-11 cells assessed as necrotic cells at 0.1 uM incubated for 24 hrs by AnnexinV-FITC/PI staining based flow cytometry (reference value: 0%). Type of data set: functional.
In data set [6] the test system is MV4-11. Kind of data set: Induction of apoptosis in human MV4-11 cells assessed as late apoptotic cells at 0.5 uM incubated for 24 hrs by AnnexinV-FITC/PI staining based flow cytometry (reference value: 5.21%). Type of data set: functional. A general note: In flow cytometry, cells or beads pass a laser one at a time.
Data set [7] deals with MV4-11. Kind of data set: Induction of apoptosis in human MV4-11 cells assessed as viable cells at 1 uM incubated for 24 hrs by AnnexinV-FITC/PI staining based flow cytometry (reference value: 93.4%). The format is functional. Particulars: read-out: Activity.
The subject of data set [8] is MV4-11. The experiment in a line: Induction of apoptosis in human MV4-11 cells assessed as viable cells at 2 uM incubated for 24 hrs by AnnexinV-FITC/PI staining based flow cytometry (reference value: 93.4%). Type of data set: functional. Particulars: read-out: Activity.
The test system of data set [9] is MV4-11. Kind of data set: Induction of cell cycle arrest in human MV4-11 cells assessed as accumulation of cells at S phase at 0.2 uM incubated fo 36 hrs by propidium iodide staining based flow cytometry (reference value: 26.5%). The format is functional.
Data set [10] deals with MV4-11. Kind of data set: Induction of cell cycle arrest in human MV4-11 cells assessed as accumulation of cells at G2/M phase at 0.4 uM incubated fo 36 hrs by propidium iodide staining based flow cytometry (reference value: 9.5%). The format is functional.

These results are taken from ChEMBL document CHEMBL5634084, “Design and optimization of selective and potent CDK9 inhibitors with flavonoid scaffold for the treatment of acute myeloid leukemia” (Eur J Med Chem, 2023).

In general, inhibition refers to the share of the control response that was lost under treatment.

Molecules are shown by their SMILES.

Chain of Calcium-dependent protein kinase 1 (Plasmodium falciparum) (P62344 2-524 limits assumed): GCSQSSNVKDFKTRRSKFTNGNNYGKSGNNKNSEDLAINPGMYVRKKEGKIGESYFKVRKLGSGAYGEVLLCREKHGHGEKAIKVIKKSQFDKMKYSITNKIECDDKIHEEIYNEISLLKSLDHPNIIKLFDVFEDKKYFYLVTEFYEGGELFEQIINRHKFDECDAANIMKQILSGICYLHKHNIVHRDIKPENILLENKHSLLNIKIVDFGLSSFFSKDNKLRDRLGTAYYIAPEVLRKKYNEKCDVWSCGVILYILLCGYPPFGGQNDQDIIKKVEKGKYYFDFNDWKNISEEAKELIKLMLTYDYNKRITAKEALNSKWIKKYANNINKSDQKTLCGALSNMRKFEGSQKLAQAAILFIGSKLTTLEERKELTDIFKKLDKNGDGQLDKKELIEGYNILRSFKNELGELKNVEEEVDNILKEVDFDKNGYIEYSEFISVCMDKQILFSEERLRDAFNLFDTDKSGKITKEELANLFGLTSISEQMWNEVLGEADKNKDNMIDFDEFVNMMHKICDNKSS

`COc1cc(O)c2c(=O)cc(-c3ccc(N4CCN(C)CC4)cc3)oc2c1C1=CCN(C)CC1`: the inhibition in [1] is 2.2%; in data set [3] it was “Dose-Dependent Effect”; in data set [4] it was “Dose-Dependent Effect”. The Stability result in data set [2] is “Stable”. In addition, the Activity in the data set with MV4-11 [5] is 0.02%; in the data set with MV4-11 [6], 10.2%; in the data set with MV4-11 [9] it was 19%; in the data set on MV4-11 [10], 6%. Also, in the data set with MV4-11 [7], the viability at 1 µM came out at 69.1%. In the data set with MV4-11 [8], the viability at 2 µM was found to be 3.12%.
